# Reference: patent US8541363B2, “Pyruvamide compounds as inhibitors of dust mite group 1 peptidase allergen and their use” (St George's Hosptial Medical School, priority 2010, dated 2013)
# Molecular target: Der p 1 (Dermatophagoides pteronyssinus (European house dust mite), UniProt P08176)
# Test: Der p 1 enzyme activity assay (FRET fluorogenic substrate)
# Assay type: biochemical
# Details: Der p 1 IC50
# Chain of Der p 1 (P08176 99-320): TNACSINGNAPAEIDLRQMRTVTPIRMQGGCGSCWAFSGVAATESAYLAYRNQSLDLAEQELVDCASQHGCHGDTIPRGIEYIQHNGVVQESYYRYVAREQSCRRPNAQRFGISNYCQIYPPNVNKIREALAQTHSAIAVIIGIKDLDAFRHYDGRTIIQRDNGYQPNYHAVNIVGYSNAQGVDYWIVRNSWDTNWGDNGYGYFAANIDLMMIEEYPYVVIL
row,SMILES,IC50 [nM]
1,CNS(=O)(=O)c1ccc(CNC(=O)C(=O)[C@@H](NC(=O)[C@H](C)NC(=O)[C@@H](N2Cc3ccccc3C2=O)C(C)(C)C)C(C)C)cc1 [PVA-208],< 20

# Same assay, conditions: threshold stated in text; read-out: Der p 1 IC50
row,SMILES,IC50 [nM]
1,CC(C)[C@H](NC(=O)[C@H](C)NC(=O)[C@H](Cc1ccccc1)NC(=O)c1ccncc1)C(=O)C(=O)NC1CCC1 [PVA-174],< 200
2,CC(C)[C@H](NC(=O)[C@H](C)NC(=O)[C@@H](NC(=O)c1ccc(N2CCN(C)CC2)cc1)C(C)(C)C)C(=O)C(=O)NCc1ccccc1 [PVA-176],< 200
3,CC(C)[C@H](NC(=O)[C@H](C)NC(=O)[C@@H](N1Cc2ccccc2C1=O)C(C)(C)C)C(=O)C(=O)NC1CC1 [PVA-177],< 20
4,CC(C)[C@H](NC(=O)[C@H](C)NC(=O)[C@@H](NC(=O)c1ccccc1)C(C)(C)C)C(=O)C(=O)NCc1ccc(C(F)(F)F)cc1 [PVA-181],< 200
5,CC(C)[C@H](NC(=O)[C@H](C)NC(=O)[C@@H](NC(=O)c1cccc(Cl)c1)C(C)(C)C)C(=O)C(=O)NCc1ccccc1 [PVA-183],< 20
6,CC(C)[C@H](NC(=O)[C@H](C)NC(=O)[C@@H](NC(=O)c1ccc(Cl)cc1)C(C)(C)C)C(=O)C(=O)NCc1ccccc1 [PVA-184],< 200
7,CC(C)[C@H](NC(=O)[C@H](C)NC(=O)[C@@H](NC(=O)c1ccnc2ccccc12)C(C)(C)C)C(=O)C(=O)NCc1ccc(S(N)(=O)=O)cc1 [PVA-185],< 20
8,CC(C)[C@H](NC(=O)[C@H](C)NC(=O)[C@@H](NC(=O)c1ccnc2ccccc12)C(C)(C)C)C(=O)C(=O)NCC(=O)N1CCc2ccccc2C1 [PVA-186],< 20
9,CC(C)[C@H](NC(=O)[C@H](C)NC(=O)[C@@H](NC(=O)c1ccnc2ccccc12)C(C)(C)C)C(=O)C(=O)NCC(=O)N1CCN(C(C)C)CC1 [PVA-187],< 20
10,CC(C)[C@H](NC(=O)[C@H](C)NC(=O)[C@@H](NC(=O)c1ccnc2ccccc12)C(C)(C)C)C(=O)C(=O)NCc1ccc(C(N)=O)cc1 [PVA-188],< 20
11,CC(C)[C@H](NC(=O)[C@H](C)NC(=O)[C@@H](NC(=O)c1ccccc1)C(C)(C)C)C(=O)C(=O)NCc1ccc(OC(F)(F)F)cc1 [PVA-189],< 200
12,CC(C)[C@H](NC(=O)[C@H](C)NC(=O)[C@@H](NC(=O)c1ccccc1)C(C)(C)C)C(=O)C(=O)NCc1cccc(N2CCN(C)CC2)c1 [PVA-190],< 200
13,CC(C)[C@H](NC(=O)[C@H](C)NC(=O)[C@@H](NC(=O)c1ccccc1)C(C)(C)C)C(=O)C(=O)NCc1cccc(Cl)c1 [PVA-191],< 200
14,CC(C)[C@H](NC(=O)[C@H](C)NC(=O)[C@@H](NC(=O)c1ccccc1)C(C)(C)C)C(=O)C(=O)NCc1ccc(N2CCN(C)CC2)nc1 [PVA-195],< 20
15,CNC(=O)c1ccc(CNC(=O)C(=O)[C@@H](NC(=O)[C@H](C)NC(=O)[C@@H](NC(=O)c2ccccc2)C(C)(C)C)C(C)C)cc1 [PVA-196],< 20
16,CNS(=O)(=O)c1ccc(CNC(=O)C(=O)[C@@H](NC(=O)[C@H](C)NC(=O)[C@@H](NC(=O)c2ccccc2)C(C)(C)C)C(C)C)cc1 [PVA-197],< 20
17,CC(C)[C@H](NC(=O)[C@H](C)NC(=O)[C@H](Cc1ccc(N2CCN(C)CC2)cc1)NC(=O)c1ccccc1)C(=O)C(=O)NCc1ccccc1 [PVA-198],< 200
18,COC(=O)c1cccc(CNC(=O)C(=O)[C@@H](NC(=O)[C@H](C)NC(=O)[C@@H](NC(=O)c2ccccc2)C(C)(C)C)C(C)C)c1 [PVA-199],< 20
19,CC(C)[C@H](NC(=O)[C@H](C)NC(=O)[C@@H](NC(=O)c1ccccc1N1CCN(C)CC1)C(C)(C)C)C(=O)C(=O)NCc1ccccc1 [PVA-201],< 200
20,CC(C)[C@H](NC(=O)[C@H](C)NC(=O)[C@@H](NC(=O)c1ccccc1)C(C)(C)C)C(=O)C(=O)NC1CCC1 [PVA-203],< 200
21,COc1ccc(CNC(=O)C(=O)[C@@H](NC(=O)[C@H](C)NC(=O)[C@@H](NC(=O)c2ccccc2)C(C)(C)C)C(C)C)cc1 [PVA-204],< 20
22,CC(C)[C@H](NC(=O)[C@H](C)NC(=O)[C@@H](N1Cc2ccccc2C1=O)C(C)(C)C)C(=O)C(=O)NCc1ccc(C(N)=O)cc1 [PVA-207],< 20
23,CNC(=O)c1ccc(CNC(=O)C(=O)[C@@H](NC(=O)[C@H](C)NC(=O)[C@@H](N2Cc3ccccc3C2=O)C(C)(C)C)C(C)C)cc1 [PVA-209],< 20
24,CC(C)[C@H](NC(=O)[C@H](C)NC(=O)[C@@H](N1Cc2ccccc2C1=O)C(C)(C)C)C(=O)C(=O)NCc1ccc(N2CCN(C)CC2)cc1 [PVA-211],< 20
25,CC(C)[C@H](NC(=O)[C@H](C)NC(=O)[C@@H](N1Cc2ccccc2C1=O)C(C)(C)C)C(=O)C(=O)NCC(=O)N1CCc2ccccc2C1 [PVA-212],< 20
26,CC(C)[C@H](NC(=O)[C@H](C)NC(=O)[C@@H](NC(=O)c1cccc2ccccc12)C(C)(C)C)C(=O)C(=O)NCc1ccc(S(N)(=O)=O)cc1 [PVA-215],< 20

# Second part, the compound after the results:
row,IC50 [nM],SMILES
1,< 200,CC(C)[C@H](NC(=O)[C@H](C)NC(=O)[C@H](Cc1ccccc1)NC(=O)c1ccncc1)C(=O)C(=O)NC1CCCC1 [PVA-175]
2,< 20,CC(C)[C@H](NC(=O)[C@H](C)NC(=O)[C@@H](NC(=O)c1ccccc1)C(C)(C)C)C(=O)C(=O)NCc1ccc(F)cc1 [PVA-178]
3,< 200,CC(C)[C@H](NC(=O)[C@H](C)NC(=O)[C@@H](NC(=O)c1ccccc1)C(C)(C)C)C(=O)C(=O)NCc1ccc(Cl)cc1 [PVA-179]
4,< 200,CC(C)[C@H](NC(=O)[C@H](C)NC(=O)[C@@H](NC(=O)c1ccccc1)C(C)(C)C)C(=O)C(=O)NCc1ccc(C(C)(C)C)cc1 [PVA-180]
5,< 20,CC(C)[C@H](NC(=O)[C@H](C)NC(=O)[C@@H](NC(=O)c1ccccc1C(F)(F)F)C(C)(C)C)C(=O)C(=O)NCc1ccccc1 [PVA-182]
6,< 20,CC(C)[C@H](NC(=O)[C@H](C)NC(=O)[C@@H](NC(=O)c1ccccc1)C(C)(C)C)C(=O)C(=O)NCc1ccc(C#N)cc1 [PVA-192]
7,< 200,CC(C)[C@H](NC(=O)[C@H](C)NC(=O)[C@@H](NC(=O)c1ccccc1)C(C)(C)C)C(=O)C(=O)NCc1ccccc1Cl [PVA-193]
8,< 20,CC(C)[C@H](NC(=O)[C@H](C)NC(=O)[C@@H](NC(=O)c1ccccc1)C(C)(C)C)C(=O)C(=O)NCc1ccc(NC(N)=O)cc1 [PVA-194]
9,< 200,CC(C)[C@H](NC(=O)[C@H](C)NC(=O)[C@@H](NC(=O)c1ccccc1)C(C)(C)C)C(=O)C(=O)NCc1cccc(C(=O)OC(C)(C)C)c1 [PVA-200]
10,< 20,CC(C)[C@H](NC(=O)[C@H](C)NC(=O)[C@@H](NC(=O)c1ccccc1)C(C)(C)C)C(=O)C(=O)NCc1ccc(C(N)=O)cc1 [PVA-202]
11,< 20,Cc1ccc(CNC(=O)C(=O)[C@@H](NC(=O)[C@H](C)NC(=O)[C@@H](NC(=O)c2ccccc2)C(C)(C)C)C(C)C)cc1 [PVA-205]
12,< 20,CC(C)[C@H](NC(=O)[C@H](C)NC(=O)[C@@H](N1Cc2ccccc2C1=O)C(C)(C)C)C(=O)C(=O)NCc1ccc(S(N)(=O)=O)cc1 [PVA-206]
13,< 20,CC(C)[C@H](NC(=O)[C@H](C)NC(=O)[C@@H](N1Cc2ccccc2C1=O)C(C)(C)C)C(=O)C(=O)NCc1ccc(CN(C)C)cc1 [PVA-210]
14,< 20,CC(C)[C@H](NC(=O)[C@H](C)NC(=O)[C@@H](N1Cc2ccccc2C1=O)C(C)(C)C)C(=O)C(=O)NCc1ccc(N2CCN(C)CC2)nc1 [PVA-213]
15,< 20,CC(C)[C@H](NC(=O)[C@H](C)NC(=O)[C@@H](NC(=O)c1ccccc1)C12CC3CC(CC(C3)C1)C2)C(=O)C(=O)NCc1ccc(S(N)(=O)=O)cc1 [PVA-214]
16,< 20,CC(C)[C@H](NC(=O)[C@H](C)NC(=O)[C@@H](NC(=O)C1CCN(C)CC1)C(C)(C)C)C(=O)C(=O)NCc1ccccc1 [PVA-216]
